Calls of active or inactive are those of the source. No cut-off for these calls is given here.

The source of these data is ChEMBL document CHEMBL5046256, “The discovery of potent small molecule cyclic urea activators of STING” (Eur J Med Chem, 2022).

One test has as its system HEK-293T. The test can be described thus: Agonist activity against human STING R232H variant transfected in HEK-293T cells co-expressing ISRE.ISG54 at 5 uM by luciferase reporter gene assay relative to control. The test is classed as cell-based.
Settings: not given
Take `CN1Cc2ccc(C(=O)NCc3cnc(-c4ccccc4)s3)cc2N(Cc2c(F)cccc2Cl)C1=O`: the outcome was inactive.
With `CN1Cc2ccc(C(=O)NCc3ccc4cnn(C)c4c3)cc2N(Cc2c(F)cccc2Cl)C1=O`, the outcome was inactive.
The same measure, in the same setting: to `CN1Cc2ccc(C(=O)NCc3c(F)cc(F)cc3F)cc2N(Cc2ccnn2C)C1=O` belongs 7%.
The same measure, in the same setting: for `CN1Cc2ccc(C(=O)NCc3ccc4c(c3)NCCO4)cc2N(Cc2c(F)cccc2Cl)C1=O` the value was “inactive”; for `O=C(NCc1c(F)cc(F)cc1F)c1ccc2c(c1)N(Cc1c(F)cccc1Cl)C(=O)N(O)C2`, 8%; for `CN1Cc2ccc(C(=O)NCc3cccc(C(=O)N4CCCC4)c3)cc2N(Cc2c(F)cccc2Cl)C1=O`, “inactive”.
Still for that read-out and setting: to `CC1c2ccc(C(=O)NCc3c(F)cc(F)cc3F)cc2N(Cc2ccc(F)cc2Cl)C(=O)N1C` (stereo unspecified) belongs 25%; to `Cc1ccc(CNC(=O)c2ccc3c(c2)N(Cc2cc(F)cc(F)c2)C(=O)N(C)C3)o1`, 16%; to `Cc1cc(CN2C(=O)N(C)Cc3ccc(C(=O)NCc4c(F)cc(F)cc4F)cc32)nn1C`, 14%.
Compound `C[C@H]1c2ccc(C(=O)NCc3c(F)cc(F)cc3F)cc2N(Cc2c(Cl)c[nH]c(=O)c2F)C(=O)N1C` came in with an Activity of 16%.
On the same count and under the same terms, for `CN1Cc2ccc(C(=O)NCc3cccc(N4CCOCC4)c3)cc2N(Cc2c(F)cccc2Cl)C1=O` the value was “inactive”; for `CN1Cc2ccc(C(=O)NCc3cccc(-c4ncco4)c3)cc2N(Cc2c(F)cccc2Cl)C1=O`, “inactive”.
Same read-out and setting: to `CN1Cc2ccc(C(=O)NCc3ccc4c(c3)CC(=O)N4)cc2N(Cc2c(F)cccc2Cl)C1=O` belongs 2%; to `CN1Cc2ccc(C(=O)NCc3cccc(-n4cccn4)c3)cc2N(Cc2c(F)cccc2Cl)C1=O`, “inactive”; to `CN1Cc2ccc(C(=O)NCc3c(F)cc(F)cc3F)cc2N(Cc2cn(C)cn2)C1=O`, 7%.
Same read-out and setting: to `CN1Cc2ccc(CNCc3c(F)cc(F)cc3F)cc2N(Cc2c(F)cccc2Cl)C1=O` belongs 3%; to `CN1Cc2ccc(C(=O)NCc3cccc(N4CCCC4=O)c3)cc2N(Cc2c(F)cccc2Cl)C1=O`, “inactive”.
The compound `CN1Cc2ccc(C(=O)NCc3cccc4c3OCO4)cc2N(Cc2c(F)cccc2Cl)C1=O` yielded an Activity of 4%.
Still for that read-out and setting: to `CN1Cc2ncc(C(=O)NCc3c(F)cc(F)cc3F)cc2N(Cc2cc(F)cc(F)c2)C1=O` belongs 19%; to `Cc1nc(CN2C(=O)N(C)Cc3ccc(C(=O)NCc4c(F)cc(F)cc4F)cc32)co1`, 13%; to `CN1Cc2ccc(C(=O)NCc3ccc(C(F)(F)F)nc3)cc2N(Cc2c(F)cccc2Cl)C1=O`, “inactive”.
Same read-out and setting: to `CN1Cc2ccc(C(=O)NCc3cccc(-n4cncn4)c3)cc2N(Cc2c(F)cccc2Cl)C1=O` belongs “inactive”.
On the same count and under the same terms, to `Cn1cnc(N2Cc3ccc(C(=O)NCc4c(F)cc(F)cc4F)cc3N(Cc3c(F)cccc3Cl)C2=O)c1` belongs “inactive”; to `CN1Cc2ccc(C(=O)NCc3c(F)cc(F)cc3F)cc2N(Cc2cn3ccccc3n2)C1=O`, 16%.
Turning to `CN1Cc2ccc(C(=O)NCc3ccc(N4CCCC4=O)cc3)cc2N(Cc2c(F)cccc2Cl)C1=O`, the result was inactive.

The same test, now with this note: filed as agonist.
`CON1Cc2ccc(C(=O)NCc3c(F)cc(F)cc3F)cc2N(Cc2c(F)cccc2Cl)C1=O` displayed an Activity of 82%.
The same measure, in the same setting: to `CN1Cc2ccc(C(=O)NCc3ccc4ccoc4c3)cc2N(Cc2c(F)cccc2Cl)C1=O` belongs 84%; to `CN1Cc2ccc(C(=O)NCc3c(F)cc(F)cc3F)cc2N(Cc2cccc(C(N)=O)c2)C1=O`, 57%; to `CN1Cc2ccc(C(=O)NCc3c(F)cc(F)cc3F)cc2N(Cc2ccccc2Cl)C1=O`, 76%.
On the same count and under the same terms, for `Cc1cc(CN2C(=O)N(C)Cc3ccc(C(=O)NCc4c(F)cc(F)cc4F)cc32)no1` the value was 68%; for `Cc1cc(CN2C(=O)N(C)C(C)c3ccc(C(=O)NCc4c(F)cc(F)cc4F)cc32)ccn1` (racemic) [listing 1 of 2 here], 61%.
On the same count and under the same terms, for `CN1Cc2ccc(C(=O)NCc3ccc4occc4c3)cc2N(Cc2c(F)cccc2Cl)C1=O` the value was 70%; for `CN1Cc2ncc(C(=O)NCc3c(F)cc(F)cc3F)cc2N(Cc2c(F)cccc2Cl)C1=O`, 76%.

Test system in the next test: not listed separately
The test can be described thus: Agonist activity against human STING R232H variant transfected in HEK-293T cells co-expressing ISRE.ISG54 by luciferase reporter gene assay. As to conditions: Homo sapiens, HEK-293T. The class given is cell-based.
As to `CC1c2ccc(C(=O)NCc3c(F)cc(F)cc3F)cc2N(Cc2ccccc2F)C(=O)N1C` (racemic), a half-maximal response (EC50) required 153 nM.
With `CN1Cc2ccc(C(=O)NCc3cc4ccccc4o3)cc2N(Cc2cc(F)cc(F)c2)C1=O`, the response was half-maximal at 2260 nM (EC50). This EC50 lies about 15-fold higher than the previous one.
`CC1c2ccc(C(=O)NCc3c(F)cc(F)cc3F)cc2N(Cc2c(F)cc(Cl)cc2F)C(=O)N1C` (stereo unspecified): the response was half-maximal at 157 nM (EC50).
Still for that read-out and setting: to `CC1c2ccc(C(=O)NCc3c(F)cc(F)cc3F)cc2N(Cc2ccncc2F)C(=O)N1C` (stereo unspecified) belongs 388 nM.
On the same count and under the same terms, to `O=C(NCc1c(F)cc(F)cc1F)c1ccc2c(c1)N(Cc1cc(F)cc(F)c1)C(=O)NC2` belongs 2340 nM; to `CC1c2ccc(C(=O)NCc3c(F)cc(F)cc3F)cc2N(Cc2c(F)cccc2C(F)(F)F)C(=O)N1C` (stereo unspecified), 181 nM.
On the same count and under the same terms, to `Cc1ccc(Cl)c(CN2C(=O)N(C)[C@@H](C)c3ccc(C(=O)NCc4c(F)cc(F)cc4F)cc32)c1F` belongs 38 nM; to `C[C@H]1c2ccc(C(=O)NCc3c(F)cc(F)cc3F)cc2N(Cc2c(F)ccc(F)c2Cl)C(=O)N1C`, 36 nM.
With `C[C@H]1c2ccc(C(=O)NCc3c(F)cc(F)cc3F)cc2N(Cc2ncccc2F)C(=O)N1C`, the EC50 (in general, the concentration that produces a half-maximal response) is 1040 nM.
`Cc1ccc(Cl)c(CN2C(=O)N(C)C(C)c3ccc(C(=O)NCc4c(F)cc(F)cc4F)cc32)c1F` (stereo unspecified) showed an EC50 of 60 nM. This EC50 lies about 17-fold lower than the previous one.
For the compound `Cc1nccc(CN2C(=O)N(C)[C@@H](C)c3ccc(C(=O)NCc4c(F)cc(F)cc4F)cc32)c1F`, the half-maximal effective concentration (EC50) is 47 nM.
The same measure, in the same setting: to `CN1Cc2ccc(C(=O)NCc3c(F)cc(F)cc3F)cc2N(Cc2c(F)cccc2Cl)C1=O` belongs 133 nM; to `C[C@H]1c2ccc(C(=O)NCc3c(F)cc(F)cc3F)cc2N(Cc2c(F)cncc2F)C(=O)N1C`, 169 nM.
The same measure, in the same setting: to `Cc1ncc(Cl)c(CN2C(=O)N(C)[C@@H](C)c3ccc(C(=O)NCc4c(F)cc(F)cc4F)cc32)c1F` belongs 37 nM; to `CN1Cc2ccc(C(=O)NCc3c(F)cc(F)cc3F)cc2N(Cc2cc(F)cc(F)c2)C1=O`, 274 nM.
Still for that read-out and setting: for `CN1Cc2ccc(C(=O)NCc3c(F)cc(F)cc3F)cc2N(Cc2ccccc2F)C1=O` the value was 191 nM.
Compound `C[C@@H]1c2ccc(C(=O)NCc3c(F)cc(F)cc3F)cc2N(Cc2c(F)cccc2Cl)C(=O)N1C` registered an EC50 of 2600 nM.
The same measure, in the same setting: for `COc1cccc(F)c1CN1C(=O)N(C)Cc2ccc(C(=O)NCc3c(F)cc(F)cc3F)cc21` the value was 248 nM; for `Cc1cccc(F)c1CN1C(=O)N(C)Cc2ccc(C(=O)NCc3c(F)cc(F)cc3F)cc21`, 317 nM.
In the case of `CN1Cc2ccc(C(=O)NCc3c(F)cc(F)cc3F)cc2N(Cc2ccncc2)C1=O`, the EC50 amounted to 3340 nM.
`CC1c2ccc(C(=O)NCc3c(F)cc(F)cc3F)cc2N(Cc2ccccc2)C(=O)N1C` (stereo unspecified) registered an EC50 of 270 nM. Against the preceding compound, the EC50 is about 12-fold lower.
Compound `Cc1ccc(CN2C(=O)N(C)[C@@H](C)c3ccc(C(=O)NCc4c(F)cc(F)cc4F)cc32)c(F)c1` displayed an EC50 of 135 nM.
On the same count and under the same terms, to `CN1Cc2ccc(C(=O)NCc3c(F)cc(F)cc3F)cc2N(Cc2ccc(F)cc2F)C1=O` belongs 204 nM; to `CC1c2ccc(C(=O)NCc3c(F)cc(F)cc3F)cc2N(Cc2ccc(F)cc2)C(=O)N1C` (stereo unspecified), 200 nM; to `Cc1nccc(CN2C(=O)N(C)C(C)c3ccc(C(=O)NCc4c(F)cc(F)cc4F)cc32)c1F` (stereo unspecified), 134 nM.
Compound `Cc1ncc(CN2C(=O)N(C)Cc3ccc(C(=O)NCc4c(F)cc(F)cc4F)cc32)s1` had an EC50 of 1710 nM.
Take `CC1c2ccc(C(=O)NCc3c(F)cc(F)cc3F)cc2N(Cc2c(F)cccc2Cl)C(=O)N1C` (stereo unspecified): a half-maximal effect (EC50) was put at 29 nM.
On the same count and under the same terms, to `Cc1ncc(Cl)c(CN2C(=O)N(C)C(C)c3ccc(C(=O)NCc4c(F)cc(F)cc4F)cc32)c1F` (stereo unspecified) belongs 39 nM; to `Cc1cccc(CN2C(=O)N(C)[C@@H](C)c3ccc(C(=O)NCc4c(F)cc(F)cc4F)cc32)c1F`, 47 nM; to `CN1Cc2ccc(C(=O)NCc3c(F)cc(F)cc3F)cc2N(Cc2ccc(F)cc2)C1=O`, 196 nM.
The compound `Cc1cccc(CN2C(=O)N(C)C(C)c3ccc(C(=O)NCc4c(F)cc(F)cc4F)cc32)c1F` (stereo unspecified) came in with an EC50 of 91 nM. Against the preceding compound, the EC50 is about 2.2-fold lower.
In the case of `Cc1cccc(F)c1CN1C(=O)N(C)C(C)c2ccc(C(=O)NCc3c(F)cc(F)cc3F)cc21` (stereo unspecified), the EC50 is 41 nM.
The same measure, in the same setting: for `Cc1cccc(CN2C(=O)N(C)Cc3ccc(C(=O)NCc4c(F)cc(F)cc4F)cc32)c1F` the value was 369 nM; for `CN1Cc2ccc(C(=O)NCc3c(F)cc(F)cc3F)cc2N(Cc2ccccc2)C1=O`, 980 nM.
Same read-out and setting: for `C[C@H]1c2ccc(C(=O)NCc3c(F)cc(F)cc3F)cc2N(Cc2c(Cl)cn(C)c(=O)c2F)C(=O)N1C` the value was 1760 nM.
For `CN1Cc2ccc(C(=O)NCc3ccc(F)cc3F)cc2N(Cc2cc(F)cc(F)c2)C1=O`, the EC50 stood at 450 nM.

The test is the same for the next values; noted with them: hek-293t.
With `Cc1cc(CN2C(=O)N(C)C(C)c3ccc(C(=O)NCc4c(F)cc(F)cc4F)cc32)ccn1` (stereo in doubt; 74), the EC50 worked out at 816 nM.
Still for that read-out and setting: to `CC1c2ccc(C(=O)NCc3c(F)cc(F)cc3F)cc2N(Cc2c(F)cccc2F)C(=O)N1C` (stereo in doubt; 72) belongs 51 nM; to `CC1c2ccc(C(=O)NCc3c(F)cc(F)cc3F)cc2N(Cc2cc(F)cc(F)c2)C(=O)N1C` (racemic), 470 nM.
On the same count and under the same terms, for `CC1c2ccc(C(=O)NCc3c(F)cc(F)cc3F)cc2N(Cc2c(F)cccc2F)C(=O)N1C` (racemic) the value was 21 nM; for `Cc1cc(CN2C(=O)N(C)C(C)c3ccc(C(=O)NCc4c(F)cc(F)cc4F)cc32)ccn1` (racemic) [listing 2 of 2 here], 247 nM; for `CC1c2ccc(C(=O)NCc3c(F)cc(F)cc3F)cc2N(Cc2cc(F)cc(F)c2)C(=O)N1C` (stereo in doubt; 68), 117 nM.
On the same count and under the same terms, to `CC1c2ccc(C(=O)NCc3c(F)cc(F)cc3F)cc2N(Cc2ccccc2F)C(=O)N1C` (stereo in doubt; 98) belongs 122 nM.
